Measured values: patent US20110158980A1, “METHODS TO TREAT AND SCREEN FOR AGENTS TO TREAT OBESITY” (TRUSTEES OF TUFTS COLLEGE, priority 2008, published 2011)

System: 3T3-L1 adipocytes
Experiment: Metabolic flux analysis (stoichiometric model) of adipocyte intermediary metabolism
Type: cell-based
Description: 3T3-L1 preadipocytes were plated onto 24-well plates and expanded in preadipocyte growth medium consisting of DMEM supplemented with calf serum (10% v/v), penicillin and streptomycin. Medium was replenished every other day. Two days post-confluence, the cells were induced to differentiate using an adipogenic cocktail (1 μg/ml insulin, 0.5 mM isobutylmethylxanthine, and 1 μM dexamethasone) added to a basal medium (DMEM with 10% fetal bovine serum and penicillin/streptomycin). After 48 hrs, the first medium was replaced with a second induction medium consisting of the basal adipocyte medium supplemented with only insulin. […] This basal medium was replenished every other day during the remainder of the culture experiments.
A stoichiometric model of adipocyte central carbon metabolism was constructed as described previously (Si Y, Yoon J, Lee K. American journal of physiology 2007; 292:E1637-46). The model consisted of the major pathways of central carbon metabolism (Table 1). Intracellular fluxes were estimated by solving a constrained non-linear optimization problem with stoichiometric and thermodynamic constraints (Nolan R P, Fenley A P, Lee K. Metab Eng 2006; 8:30-45).

Structure (SMILES): O=C(O)Cc1ccccc1 [phenylacetate]
- Increase of lipolysis (5 mM PA): 1.2 fold
- Decrease of citrate transport out of the mitochondria (5 mM phenylacetate): 40%
- Decrease of pyruvate carboxylase flux (5 mM phenylacetate): 23%
- Increase of lipolysis (10 mM PA): 1.4 fold
- Calculated CO2 output lower (10 mM phenylacetate): 23%
- Decrease of PDC flux (10 mM phenylacetate): 27%
- Decrease of citrate transport out of the mitochondria (10 mM phenylacetate): 46%
- Decrease of pyruvate carboxylase flux (10 mM phenylacetate): 33%
- Flux RXN 1 Glycolysis: Glucose + ATP = Glucose 6-P + ADP (PA 5 mM, day 12 post-induction): 367.0 ± 17.6 mmol/g-DNA/2 days
- Flux RXN 2 Glycolysis: Glucose 6-P = Fructose 6-P (PA 5 mM, day 12 post-induction): 359.9 ± 23.3 mmol/g-DNA/2 days
- Flux RXN 3 Glycolysis: Fructose 6-P + ATP = Glyceraldehyde 3-P + Glycerone-P + ADP (PA 5 mM, day 12 post-induction): 364.7 ± 19.3 mmol/g-DNA/2 days
- Flux RXN 4 Glycolysis: Glycerone-P = Glyceraldehyde 3-P (PA 5 mM, day 12 post-induction): 342.7 ± 18.4 mmol/g-DNA/2 days
- Flux RXN 5 Glycolysis: Glyceraldehyde 3-P + NAD+ + ADP + Pi = P-Enolpyruvate + ATP + H2O (PA 5 mM, day 12 post-induction): 709.8 ± 35.8 mmol/g-DNA/2 days
- Flux RXN 6 Glycolysis: P-Enolpyruvate + ADP + H+ = Pyruvate + ATP (PA 5 mM, day 12 post-induction): 784.6 ± 35.5 mmol/g-DNA/2 days
- Flux RXN 7 Glycolysis: Pyruvate + NADH + H+ = Lactate + NAD+ (PA 5 mM, day 12 post-induction): 410.4 ± 19.1 mmol/g-DNA/2 days
- Flux RXN 8 Pentose phosphate pathway: Glucose 6-P + 2 NADP+ + H2O = Ribulose 5-P + CO2 + 2 NADPH + 2 H+ (PA 5 mM, day 12 post-induction): 7.1 ± 7.8 mmol/g-DNA/2 days
- Flux RXN 9 Pentose phosphate pathway: 3 Ribulose 5-P = 2 Fructose 6-P + Glyceraldehyde 3-P (PA 5 mM, day 12 post-induction): 2.4 ± 2.6 mmol/g-DNA/2 days
- Flux RXN 10 TCA cycle (mitochondria) (PDC) (PA 5 mM, day 12 post-induction): 312.7 ± 48.2 mmol/g-DNA/2 days
- Flux RXN 11 TCA cycle (mitochondria) (PC) (PA 5 mM, day 12 post-induction): 141.4 ± 13.2 mmol/g-DNA/2 days
- Flux RXN 12 TCA cycle (mitochondria) (PA 5 mM, day 12 post-induction): 200.9 ± 54.1 mmol/g-DNA/2 days
- Flux RXN 13 TCA cycle (mitochondria) (PA 5 mM, day 12 post-induction): 237.8 ± 52.0 mmol/g-DNA/2 days
- Flux RXN 14 TCA cycle (mitochondria) (PA 5 mM, day 12 post-induction): 251.0 ± 52.6 mmol/g-DNA/2 days
- Flux RXN 15 TCA cycle (mitochondria) (PA 5 mM, day 12 post-induction): 251.2 ± 52.7 mmol/g-DNA/2 days
- Flux RXN 16 TCA cycle (mitochondria) (PA 5 mM, day 12 post-induction): 171.3 ± 45.2 mmol/g-DNA/2 days
- Flux RXN 17 TCA cycle: Citrate + CoA + ATP = Acetyl-CoA + Oxaloacetate + ADP + Pi (PA 5 mM, day 12 post-induction): 74.9 ± 9.0 mmol/g-DNA/2 days
- Flux RXN 18 TCA cycle: Oxaloacetate + NADH + H+ = Malate + NAD+ (PA 5 mM, day 12 post-induction): 0.0 ± 0.0 mmol/g-DNA/2 days
- Flux RXN 19 TCA cycle: Malate + NADP+ = Pyruvate + CO2 + NADPH (PA 5 mM, day 12 post-induction): 79.9 ± 9.7 mmol/g-DNA/2 days
- Flux RXN 20 TCA cycle: Citrate + NADP+ = 2-Oxoglutarate + CO2 + NADPH + H+ (PA 5 mM, day 12 post-induction): 36.9 ± 7.3 mmol/g-DNA/2 days
- Flux RXN 21 TCA cycle: Oxaloacetate + ATP = P-Enolpyruvate + CO2 + ADP (PA 5 mM, day 12 post-induction): 74.8 ± 9.0 mmol/g-DNA/2 days
- Flux RXN 22 Oxidative phosphorylation (NADH + 0.5 O2) (PA 5 mM, day 12 post-induction): 527.6 ± 214.3 mmol/g-DNA/2 days
- Flux RXN 23 Oxidative phosphorylation (FADH2 + 0.5 O2) (PA 5 mM, day 12 post-induction): 272.8 ± 53.3 mmol/g-DNA/2 days
- Flux RXN 24 Palmitate biosynthesis (PA 5 mM, day 12 post-induction): 9.4 ± 1.1 mmol/g-DNA/2 days
- Flux RXN 25 Tripalmitoylglycerol biosynthesis: Glycerone-P + 3 Palmitate to Tripalmitoylglycerol (PA 5 mM, day 12 post-induction): 22.0 ± 1.3 mmol/g-DNA/2 days
- Flux RXN 26 Tripalmitoylglycerol + 3 H2O = Glycerol + 3 Palmitate (PA 5 mM, day 12 post-induction): 19.2 ± 1.4 mmol/g-DNA/2 days
- Flux RXN 27 Tripalmitoylglycerol accumulation (PA 5 mM, day 12 post-induction): 2.8 ± 0.4 mmol/g-DNA/2 days
- Flux RXN 28 Metabolism of ketone bodies (PA 5 mM, day 12 post-induction): 8.4 ± 0.3 mmol/g-DNA/2 days
- Flux RXN 29 Metabolism of ketone bodies (PA 5 mM, day 12 post-induction): 0.0 ± 0.0 mmol/g-DNA/2 days
- Flux RXN 30 Metabolism of ketone bodies (to 3-Hydroxybutyrate) (PA 5 mM, day 12 post-induction): 17.0 ± 0.6 mmol/g-DNA/2 days
- Flux RXN 31 Amino acid metabolism: Pyruvate + NH4+ + NADPH = Alanine (PA 5 mM, day 12 post-induction): 0.0 ± 0.0 mmol/g-DNA/2 days
- Flux RXN 32 Amino acid metabolism: Aspartate + NH4+ = Asparagine (PA 5 mM, day 12 post-induction): 2.3 ± 0.1 mmol/g-DNA/2 days
- Flux RXN 33 Amino acid metabolism: Aspartate = Oxaloacetate + NH4+ + NADH (PA 5 mM, day 12 post-induction): 0.0 ± 0.0 mmol/g-DNA/2 days
- Flux RXN 34 Amino acid metabolism: Cysteine = Pyruvate + NH4+ + NADH (PA 5 mM, day 12 post-induction): 0.0 ± 0.0 mmol/g-DNA/2 days
- Flux RXN 35 Amino acid metabolism: Glutamate = 2-Oxoglutarate + NH4+ + NADH (PA 5 mM, day 12 post-induction): 0.0 ± 0.0 mmol/g-DNA/2 days
- Flux RXN 36 Amino acid metabolism: Glutamate + NH4+ + ATP = Glutamine (PA 5 mM, day 12 post-induction): 5.3 ± 0.4 mmol/g-DNA/2 days
- Flux RXN 37 Amino acid metabolism: Serine + THF = Glycine (PA 5 mM, day 12 post-induction): 5.8 ± 0.2 mmol/g-DNA/2 days
- Flux RXN 38 Amino acid metabolism: Histidine + THF = Glutamate + NH4+ (PA 5 mM, day 12 post-induction): 2.7 ± 0.2 mmol/g-DNA/2 days
- Flux RXN 39 Amino acid metabolism: Isoleucine + 2 CoA (PA 5 mM, day 12 post-induction): 8.1 ± 0.3 mmol/g-DNA/2 days
- Flux RXN 40 Amino acid metabolism: Leucine + CoA + CO2 + ATP (PA 5 mM, day 12 post-induction): 8.6 ± 0.3 mmol/g-DNA/2 days
- Flux RXN 41 Amino acid metabolism: Lysine = 2-Oxoadipate + 2 NH4+ + 3 NADH (PA 5 mM, day 12 post-induction): 0.0 ± 0.0 mmol/g-DNA/2 days
- Flux RXN 42 Amino acid metabolism: 2-Oxoadipate + CoA (PA 5 mM, day 12 post-induction): 0.0 ± 0.0 mmol/g-DNA/2 days
- Flux RXN 43 Amino acid metabolism: Methionine + Serine + ATP + CoA + THF (PA 5 mM, day 12 post-induction): 0.0 ± 0.0 mmol/g-DNA/2 days
- Flux RXN 44 Amino acid metabolism: Phenylalanine + O2 + NADH = Tyrosine (PA 5 mM, day 12 post-induction): 0.0 ± 0.0 mmol/g-DNA/2 days
- Flux RXN 45 Amino acid metabolism: Glutamate + ATP + 2 NADPH = Proline (PA 5 mM, day 12 post-induction): 0.0 ± 0.0 mmol/g-DNA/2 days
- Flux RXN 46 Amino acid metabolism: Serine = Pyruvate + NH4+ (PA 5 mM, day 12 post-induction): 0.0 ± 0.0 mmol/g-DNA/2 days
- Flux RXN 47 Amino acid metabolism: Threonine + CoA to Glycine (PA 5 mM, day 12 post-induction): 0.1 ± 0.1 mmol/g-DNA/2 days
- Flux RXN 48 Amino acid metabolism: Tryptophan + 3 O2 + NADPH = 2-Oxoadipate + Alanine + CO2 + NH4+ (PA 5 mM, day 12 post-induction): 0.0 ± 0.0 mmol/g-DNA/2 days
- Flux RXN 49 Amino acid metabolism: Tyrosine + 2 O2 (PA 5 mM, day 12 post-induction): 0.2 ± 0.1 mmol/g-DNA/2 days
- Flux RXN 50 Amino acid metabolism: Valine + CoA (PA 5 mM, day 12 post-induction): 5.1 ± 0.4 mmol/g-DNA/2 days
- Flux RXN 51 Plasma exchange: Palmitate (PA 5 mM, day 12 post-induction): 1.0 ± 0.1 mmol/g-DNA/2 days
- Flux RXN 52 Plasma exchange: Acetoacetate (PA 5 mM, day 12 post-induction): 0.2 ± 0.2 mmol/g-DNA/2 days
- Flux RXN 53 Plasma exchange: Alanine (PA 5 mM, day 12 post-induction): 0.0 ± 0.0 mmol/g-DNA/2 days
- Flux RXN 54 Plasma exchange: Aspartate (PA 5 mM, day 12 post-induction): 2.3 ± 0.1 mmol/g-DNA/2 days
- Flux RXN 55 Plasma exchange: Cysteine (PA 5 mM, day 12 post-induction): 0.0 ± 0.0 mmol/g-DNA/2 days
- Flux RXN 56 Plasma exchange: Glutamate (PA 5 mM, day 12 post-induction): 2.6 ± 0.2 mmol/g-DNA/2 days
- Flux RXN 57 Plasma exchange: Glycine (PA 5 mM, day 12 post-induction): 5.9 ± 0.2 mmol/g-DNA/2 days
- Flux RXN 58 Plasma exchange: Serine (PA 5 mM, day 12 post-induction): 5.8 ± 0.2 mmol/g-DNA/2 days
- Flux RXN 59 Plasma exchange: Tyrosine (PA 5 mM, day 12 post-induction): 0.1 ± 0.1 mmol/g-DNA/2 days
- Flux RXN 60 Plasma exchange: O2 (calculated oxygen uptake rate) (PA 5 mM, day 12 post-induction): 400.5 ± 134.0 mmol/g-DNA/2 days
- Flux RXN 61 Plasma exchange: CO2 (PA 5 mM, day 12 post-induction): 805.5 ± 145.9 mmol/g-DNA/2 days
- Flux RXN 62 Plasma exchange: NH4+ (PA 5 mM, day 12 post-induction): 17.0 ± 1.0 mmol/g-DNA/2 days
- Flux RXN 63 Mitochondrial exchange: Pyruvate (PA 5 mM, day 12 post-induction): 454.0 ± 54.4 mmol/g-DNA/2 days
- Flux RXN 64 Mitochondrial exchange: Malate in, Citrate out (PA 5 mM, day 12 post-induction): 111.7 ± 15.8 mmol/g-DNA/2 days
